Where two headings read alike, the source gives them in different places.
Legend:
[1] = test system: scopolamine-induced inhibition of memory retention; assay: Passive avoidance learning test, scopolamine-induced memory retention defect (Test Example 1); type: in vivo, mice; conditions: 5 min after scopolamine 0.25 mg/kg i.p., remembrance test after 24 h
Protocol: A passive avoidance learning test using mice was conducted to examine whether scopolamine-induced inhibition of memory retention can be improved by the compound of the present invention.
A training box composed of a light room and a dark room having the same structure was used. The dark room is designed so that a foot shock is given to a test animal via a grid of the floor. An opening is provided on the partitioning wall of the two rooms to let animals in and out freely.
Scopolamine hydrobromide dissolved in physiological saline was intraperitoneally administered to a mouse at a dose of 0.25 mg/kg.
Five minutes after the scopolamine administration, a test compound was intraperitoneally administered to the mouse at a dose shown in Table 1 below (test group).
The animal was put in the light room. Immediately after the animal moved into the dark room, a foot shock was given until the animal returned to the light room.
After 24 hours from the training, the animal was again put in the light room, and the time required for the animal's moving to the dark room was measured up to 300 seconds.
The data from the remembrance test were analyzed to obtain a percent prolongation of the memory retention time of the test group based on that of the control group having received no test compound.

[2] = biological target: T1, 3H-Pirenzepine bonding to rat brain homogenate (Rattus norvegicus, UniProt P08482); assay: 3H-Pirenzepine bonding inhibition test, rat brain homogenate (Test Example 2); type: binding, SD male rat
T1 construct: to obtain a rat brain homogenate for testing; from tissue; host or cells: brain without cerebellum, SD male rat (homogenate, 1000×g supernatant)
T1 sequence (P08482 1-460): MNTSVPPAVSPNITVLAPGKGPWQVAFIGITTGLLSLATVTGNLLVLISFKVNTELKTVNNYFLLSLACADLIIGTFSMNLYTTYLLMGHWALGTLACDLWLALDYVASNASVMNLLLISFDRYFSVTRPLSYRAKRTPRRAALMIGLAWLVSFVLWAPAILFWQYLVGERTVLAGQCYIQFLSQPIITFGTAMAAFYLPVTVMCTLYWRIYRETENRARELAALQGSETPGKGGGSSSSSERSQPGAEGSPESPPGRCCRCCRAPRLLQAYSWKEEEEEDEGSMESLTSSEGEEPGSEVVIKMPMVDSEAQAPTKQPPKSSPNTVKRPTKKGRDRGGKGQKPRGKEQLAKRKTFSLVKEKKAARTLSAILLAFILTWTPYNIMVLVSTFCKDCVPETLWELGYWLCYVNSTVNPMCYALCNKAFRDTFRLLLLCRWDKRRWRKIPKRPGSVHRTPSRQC
Protocol: A rat brain homogenate was prepared according to the method of Yamamura and Synder (Proc. Nat. Acad. Sci. USA, Vol. 71, pp. 1725-1729 (1974)).
An SD male rat was sacrificed by decapitation, and the brain excised. After the cerebellum was removed, 0.32 M sucrose was added thereto in an amount 10 times the weight of the brain under ice cooling, followed by homogenizing in a Potter-Elvehjem glass homogenizer. The resulting homogenate was centrifuged at 1000×g for 10 minutes, the precipitate removed, and the supernatant further homogenized with a Polytron (manufactured by KINEMATICA) to obtain a rat brain homogenate for testing.
The method of Flynn and Mash (J. Pharm. Exp. Therm., Vol. 250, pp. 573-581 (1989)) was followed.
A mixture consisting of 0.035 ml of the above prepared rat brain homogenate (protein content: 0.6 mg), 1 ml of a 50 mM phosphoric acid buffer (pH 7.4) containing 2.0 nM ^3 H-pirenzepine, and 1 ml of a test compound dissolved in the same buffer was allowed to react at room temperature for 60 minutes. To the reaction mixture was added 3.0 ml of the same buffer as used above as cooled with ice, and the mixture was filtered through Whatman GF/B filter paper having been previously impregnated with a 0.1% polyethyleneimine solution for 60 minutes. The filter cake was washed twice with 3.0 ml of the same buffer, the filter paper taken out, an emulsion scintillator added, and the scintillation measured with a liquid scintillation counter to obtain a 50% inhibitory concentration (IC50) of the test compound on ^3 H-pirenzepine bonding to the rat brain homogenate.

male mouse = assay: Acute Toxicity Test (Test Example 3); type: in vivo; conditions: 100 mg/kg i.p., 5-week-old male mouse
Protocol: The compound of Example 11, suspended in 5% gum arabic, was intraperitoneally achninistered to a 5-week-old […] male mouse. General manifestation of toxicity was observed over 60 minutes after the administration, and the animal's death was observed up to 24 hours from the administration.

[3] = 2.0 nM 3H-pirenzepine, pH 7.4, room temperature, 60 min, read-out: IC50 (50% inhibitory concentration on 3H-pirenzepine bonding)

With `Nc1c2c(nc3ccccc13)CCCC2` [THA, 1,2,3,4-tetrahydro-9-aminoacridine, reference compound] the “Percent Prolongation (of memory retention time vs control)” value (shortened to “Percent Prolongation”) ([1]; dose 100 μg/kg i.p.) was 24.4% and the “Percent Prolongation” value ([1]; dose 1000 μg/kg i.p.) was 74.8%.

In the case of `O=[N+]([O-])c1cccc2c(NCC34CCCN3CCC4)cccc12` [Example 17, 1-(1-Azabicyclo[3.3.0]octan-5-yl)methylamino-5-nitronaphthalene], the IC50 [2] is reported as 800 nM.

For `CC(C)N(CCNc1ccc([N+](=O)[O-])c2ccccc12)C(C)C` [Example 14, 1-(2-Diisopropylaminoethyl)amino-4-nitronaphthalene], the IC50 [2, 3] was 900 nM.

`O=[N+]([O-])c1ccc(NCC23CCCN2CCC3)c2ccccc12` [Example 11, 1-(1-Azabicyclo[3.3.0]octan-5-yl)methylamino-4-nitronaphthalene] was tested, and the “general manifestation of toxicity” value (male mouse; observed over 60 minutes) was “neither general manifestation of toxicity nor death was observed”, the death (male mouse; observed up to 24 hours) was “neither general manifestation of toxicity nor death was observed” and the IC50 [2] was 900 nM. The “Percent Prolongation” value ([1]; dose 1 μg/kg i.p.) was 30.9%, the “Percent Prolongation” value ([1]; dose 10 μg/kg i.p.) was 91.7% and the “Percent Prolongation” value ([1]; dose 100 μg/kg i.p.) was 120.9%. For the same molecule, the “Percent Prolongation” value ([1]; dose 1000 μg/kg i.p.) was 152.6%.

For `CN(CC12CCCN1CCC2)c1c([N+](=O)[O-])ccc2ccccc12` [Example 18, 1-[N-(1-Azabicyclo[3.3.0]octan-5-yl)methyl-N-methylamino]-2-nitronaphthalen], the IC50 [2, 3] was 440 nM, the “Percent Prolongation” value ([1]; dose 0.01 μg/kg i.p.) was 117.9% and the “Percent Prolongation” value ([1]; dose 0.1 μg/kg i.p.) was 115.9%.

`O=[N+]([O-])c1c(NCC23CCCN2CCC3)cnc2ccccc12` [Example 6, 3-(1-Azabicyclo[3.3.0]octan-5-yl)methylamino-4-nitroquinoline] was tested, and the IC50 [2, 3] was 1200 nM and the “Percent Prolongation” value ([1]; dose 1000 μg/kg i.p.) was 55.1%.

In the case of `O=[N+]([O-])c1c2ccccc2c(NCC23CCCN2CCC3)c2ccccc12` [Example 19, 9-(1-Azabicyclo[3.3.0]octan-5-yl)methylamino-10-nitroanthracene], the IC50 [2, 3] is reported as 1400 nM.

With `O=[N+]([O-])c1ccc(NCC23CCCN2CCC3)cc1` [Example 10, 1-(1-Azabicyclo[3.3.0]octan-5-yl)methylamino-4-nitrobenzene] the “Percent Prolongation” value ([1]; dose 1000 μg/kg i.p.) was 26.5%.

With `CN(CC12CCCN1CCC2)c1ccc([N+](=O)[O-])c2ccccc12` [Example 15, 1[N-(1-Azabicyclo[3.3.0]octan-5-yl)methyl-N-methylamino]-4-nitronaphthalene] the IC50 [2] was 40 nM, the “Percent Prolongation” value ([1]; dose 0.01 μg/kg i.p.) was 111.6% and the “Percent Prolongation” value ([1]; dose 0.1 μg/kg i.p.) was 68.8%. For the same molecule, the “Percent Prolongation” value ([1]; dose 1 μg/kg i.p.) was 85.2%.

Source: patent US5434165A, “Nootropic agents, compositions of, and method of use thereof” (Sanawa Kagaku Kenkyusho Company, Ltd., priority 1991, dated 1995)
